Each structure is given as a SMILES string.

Sequence of Beta-3 Adrenergic Receptor (P13945 whole entry, species assumed): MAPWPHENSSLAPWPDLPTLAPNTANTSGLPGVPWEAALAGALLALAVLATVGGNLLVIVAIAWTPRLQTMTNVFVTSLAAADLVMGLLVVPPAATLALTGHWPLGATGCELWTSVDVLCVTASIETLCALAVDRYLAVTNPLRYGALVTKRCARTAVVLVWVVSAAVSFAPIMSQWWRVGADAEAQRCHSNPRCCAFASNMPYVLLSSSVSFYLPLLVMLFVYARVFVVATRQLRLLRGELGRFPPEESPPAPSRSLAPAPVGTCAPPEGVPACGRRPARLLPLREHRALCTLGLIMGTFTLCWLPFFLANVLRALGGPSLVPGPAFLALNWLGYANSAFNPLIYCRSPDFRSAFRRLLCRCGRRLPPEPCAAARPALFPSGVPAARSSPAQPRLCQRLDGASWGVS

This test addresses Beta-3 Adrenergic Receptor (Homo sapiens (Human), UniProt P13945). The test can be described thus: HTRF cAMP antagonist assay (IC50 determination). In kind it is cell-based. As to conditions: CHO-K1 cells stably expressing recombinant receptor; antagonism of isoproterenol at EC90; cAMP readout. In a few lines:
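CHO-K1 cells stably expressing receptor, 1500 cells/well, preincubated briefly with 10-point 5-fold compound series (top final typically 10 or 100 μM) in PBS with 1 mM IBMX, then challenged with isoproterenol at EC90 for 1 h at room temperature. cAMP read by HTRF against on-plate standard curve; IC50 from dose-response.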
A general note: In TR-FRET formats the signal depends on donor and acceptor labels being close together.
On to `O=S(=O)(CCO)c1cc(F)cc(OC[C@@H](O)CN[C@H]2COC3(CCN(S(=O)(=O)c4ccc5ncccc5c4)CC3)C2)c1` [Compound 249, (S)-1-(3-fluoro-5-(2-hydroxyethylsulfonyl)phenoxy)-3-((R)-8-(quinolin-6-ylsulfonyl)-1-oxa-8-azaspiro[4.5]decan-3-ylamino)propan-2-ol], for which the IC50 was 224 nM.

With `O=S(=O)(c1cnc2c(c1)OCCO2)N1CCC2(CC1)C[C@@H](NC[C@H](O)COc1cccc(S(=O)(=O)C3(CO)CC3)c1)CO2` [Compound 285, (S)-1-((R)-8-(2,3-dihydro-[1,4]dioxino[2,3-b]pyridin-7-ylsulfonyl)-1-oxa-8-azaspiro[4.5]decan-3-ylamino)-3-(3-(1-(hydroxymethyl)cyclopropylsulfonyl)phenoxy)propan-2-ol], the IC50 is 303 nM.

Take `O=S(=O)(CCO)c1cccc(OC[C@@H](O)CN[C@H]2COC3(CCN(S(=O)(=O)c4cccc(-c5cccnc5)c4)CC3)C2)c1` [Compound 97, (S)-1-(3-(2-hydroxyethylsulfonyl)phenoxy)-3-((R)-8-(3-(pyridin-3-yl)phenylsulfonyl)-1-oxa-8-azaspiro[4.5]decan-3-ylamino)propan-2-ol]: the IC50 was 212 nM.

Consider `NCc1ccc(-c2cccc(S(=O)(=O)N3CCC4(CC3)C[C@@H](NC[C@H](O)COc3cccc(S(=O)(=O)C5(CO)CC5)c3)CO4)c2)cc1` [Compound 157, (S)-1-((R)-8-(4′-(aminomethyl)biphenyl-3-ylsulfonyl)-1-oxa-8-azaspiro[4.5]decan-3-ylamino)-3-(3-(1-(hydroxymethyl)cyclopropylsulfonyl)phenoxy)propan-2-ol], for which the IC50 is 25.7 nM.

Consider `CCOc1ccc(-c2ccc(CNC(C)C)cc2)cc1S(=O)(=O)N1CCC2(CC1)C[C@@H](NC[C@H](O)COc1cccc(S(=O)(=O)C3(CO)CC3)c1)CO2` [Compound 165, (S)-1-((R)-8-(4-ethoxy-4′-((isopropylamino)methyl)biphenyl-3-ylsulfonyl)-1-oxa-8-azaspiro[4.5]decan-3-ylamino)-3-(3-(1-(hydroxymethyl)cyclopropylsulfonyl)phenoxy)propan-2-ol], for which the IC50 was found to be 64.4 nM.

For `CCCCNCc1ccc(-c2cccc(S(=O)(=O)N3CCC4(CC3)C[C@H](NC[C@H](O)COc3cccc(S(=O)(=O)C5(CO)CC5)c3)CO4)c2)cc1` [Compound 245, (S)-1-((S)-8-(4′-((butylamino)methyl)biphenyl-3-ylsulfonyl)-1-oxa-8-azaspiro[4.5]decan-3-ylamino)-3-(3-(1-(hydroxymethyl)cyclopropylsulfonyl)phenoxy)propan-2-ol], the IC50 is 18.4 nM.

On to `CN1CCOc2ncc(S(=O)(=O)N3CCC4(CC3)C[C@@H](NC[C@H](O)COc3cccc(S(C)(=O)=O)c3)CO4)cc21` [Compound 152, (S)-1-((R)-8-(1-methyl-2,3-dihydro-1H-pyrido[2,3-b][1,4]oxazin-7-ylsulfonyl)-1-oxa-8-azaspiro[4.5]decan-3-ylamino)-3-(3-(methylsulfonyl)phenoxy)propan-2-ol], for which the IC50 was determined as 24.7 nM.

For `CCn1cc(S(=O)(=O)N2CCC3(CC2)C[C@H](NC[C@H](O)COc2cccc(S(=O)(=O)C4(CO)CC4)c2)CO3)c(=O)c2ccccc21` [Compound 293, 1-ethyl-3-((S)-3-((S)-2-hydroxy-3-(3-(1-(hydroxymethyl)cyclopropylsulfonyl)phenoxy)propylamino)-1-oxa-8-azaspiro[4.5]decan-8-ylsulfonyl)quinolin-4(1H)-one], the IC50 turned out to be 130 nM.

Turning to `CC(C)CNCc1ccc(-c2cccc(S(=O)(=O)N3CCC4(CC3)C[C@@H](NC[C@H](O)COc3cccc(S(=O)(=O)C5(CO)CC5)c3)CO4)c2)cc1` [Compound 272, (S)-1-(3-(1-(hydroxymethyl)cyclopropylsulfonyl)phenoxy)-3-((R)-8-(4′-((isobutylamino)methyl)biphenyl-3-ylsulfonyl)-1-oxa-8-azaspiro[4.5]decan-3-ylamino)propan-2-ol], the IC50 was determined as 566 nM.

Consider `O=S(=O)(CCCC(F)(F)F)c1cccc(OC[C@@H](O)CNC2COC3(CCN(S(=O)(=O)c4ccc5ccccc5c4)CC3)C2)c1` (stereo partly drawn) [Compound 14, (2S)-1-(8-(naphthalen-2-ylsulfonyl)-1-oxa-8-azaspiro[4.5]decan-3-ylamino)-3-(3-(4,4,4-trifluorobutylsulfonyl)phenoxy)propan-2-ol], for which the IC50 was 56.7 nM.

For the compound `COc1cccc(S(=O)(=O)N2CCC3(CC2)CC(NC[C@H](O)COc2cccc(S(C)(=O)=O)c2)CO3)c1` (stereo partly drawn) [Compound 49, (2S)-1-(8-(3-methoxyphenylsulfonyl)-1-oxa-8-azaspiro[4.5]decan-3-ylamino)-3-(3-(methylsulfonyl)phenoxy)propan-2-ol], the IC50 came to 33.1 nM.

In the case of `CCNCc1ccc(-c2cccc(S(=O)(=O)N3CCC4(CC3)CC(NC[C@H](O)COc3cccc(S(C)(=O)=O)c3)CO4)c2)cc1` (stereo partly drawn) [Compound 79, (2S)-1-(8-(4′-((ethylamino)methyl)biphenyl-3-ylsulfonyl)-1-oxa-8-azaspiro[4.5]decan-3-ylamino)-3-(3-(methylsulfonyl)phenoxy)propan-2-ol], the IC50 was found to be 42.2 nM.

`O=S(=O)(c1cccc(-c2ccc(CN3CCOCC3)cc2)c1)N1CCC2(CC1)C[C@H](NC[C@H](O)COc1cccc(S(=O)(=O)C3(CO)CC3)c1)CO2` [Compound 246, (S)-1-(3-(1-(hydroxymethyl)cyclopropylsulfonyl)phenoxy)-3-((S)-8-(4′-(morpholinomethyl)biphenyl-3-ylsulfonyl)-1-oxa-8-azaspiro[4.5]decan-3-ylamino)propan-2-ol]: the IC50 stood at 48.3 nM.

As to `Cc1c(-c2ccc(CN)cc2)cccc1S(=O)(=O)N1CCC2(CC1)C[C@H](NC[C@H](O)COc1cccc(S(=O)(=O)C3(CO)CC3)c1)CO2` [Compound 197, (S)-1-((S)-8-(4′-(aminomethyl)-2-methylbiphenyl-3-ylsulfonyl)-1-oxa-8-azaspiro[4.5]decan-3-ylamino)-3-(3-(1-(hydroxymethyl)cyclopropylsulfonyl)phenoxy)propan-2-ol], the IC50 was 85 nM.

As for `NC(=O)CCS(=O)(=O)c1cccc(OC[C@@H](O)CN[C@H]2COC3(CCN(S(=O)(=O)c4cnc5ccccc5c4)CC3)C2)c1` [Compound 142, 3-(3-((S)-2-hydroxy-3-((R)-8-(quinolin-3-ylsulfonyl)-1-oxa-8-azaspiro[4.5]decan-3-ylamino)propoxy)phenylsulfonyl)propanamide], the IC50 worked out at 106 nM.

In the case of `O=S(=O)(c1cccc(OC[C@@H](O)CN[C@H]2COC3(CCN(S(=O)(=O)c4cnc5c(F)cccc5c4O)CC3)C2)c1)C1CC1` [Compound 328, 3-((R)-3-((S)-3-(3-(cyclopropylsulfonyl)phenoxy)-2-hydroxypropylamino)-1-oxa-8-azaspiro[4.5]decan-8-ylsulfonyl)-8-fluoroquinolin-4-ol], the IC50 worked out at 35.4 nM.

With `CN1CCOc2cc(C(=O)N3CCC4(CC3)CC(NC[C@H](O)COc3cccc(S(C)(=O)=O)c3)CO4)ccc21` (stereo partly drawn) [Compound 64, (3-((S)-2-hydroxy-3-(3-(methylsulfonyl)phenoxy)propylamino)-1-oxa-8-azaspiro[4.5]decan-8-yl)(4-methyl-3,4-dihydro-2H-benzo[6][1,4]oxazin-7-yl)methanone], the IC50 was 922 nM.

Regarding `COc1ccc(S(=O)(=O)N2CCC3(CC2)C[C@H](NC[C@H](O)COc2cccc(S(=O)(=O)C(F)(F)CO)c2)CO3)cc1-c1ccc(CN)cc1` [Compound 238, (S)-1-((S)-8-(4′-(aminomethyl)-6-methoxybiphenyl-3-ylsulfonyl)-1-oxa-8-azaspiro[4.5]decan-3-ylamino)-3-(3-(1,1-difluoro-2-hydroxyethylsulfonyl)phenoxy)propan-2-ol], the IC50 is 22.8 nM.

Take `O=S(=O)(CCO)c1cccc(OC[C@@H](O)CN[C@@H]2COC3(CCN(S(=O)(=O)c4ccc5ccccc5c4)CC3)C2)c1` [Compound 34, (S)-1-(3-(2-hydroxyethylsulfonyl)phenoxy)-3-((S)-8-(naphthalen-2-ylsulfonyl)-1-oxa-8-azaspiro[4.5]decan-3-ylamino)propan-2-ol]: the IC50 worked out at 31.2 nM.

On to `O=S(=O)(c1cccc(OC[C@@H](O)CN[C@H]2COC3(CCN(S(=O)(=O)c4ccc5ncccc5c4)CC3)C2)c1)C1CC1` [Compound 143, (S)-1-(3-(cyclopropylsulfonyl)phenoxy)-3-((R)-8-(quinolin-6-ylsulfonyl)-1-oxa-8-azaspiro[4.5]decan-3-ylamino)propan-2-ol], for which the IC50 came out at 13.2 nM.

`CCn1cc(S(=O)(=O)N2CCC3(CC2)C[C@@H](NC[C@H](O)COc2cccc(S(=O)(=O)C4CC4)c2)CO3)c(=O)c2ccc(F)cc21` [Compound 316, 3-((R)-3-((S)-3-(3-(cyclopropylsulfonyl)phenoxy)-2-hydroxypropylamino)-1-oxa-8-azaspiro[4.5]decan-8-ylsulfonyl)-1-ethyl-7-fluoroquinolin-4(1H)-one]: the IC50 was found to be 63.8 nM.

Take `COc1ccc(S(=O)(=O)N2CCC3(CC2)C[C@H](NC[C@H](O)COc2cccc(S(=O)(=O)C4(CO)CC4)c2)CO3)cc1Br` [Compound 201, (S)-1-((S)-8-(3-bromo-4-methoxyphenylsulfonyl)-1-oxa-8-azaspiro[4.5]decan-3-ylamino)-3-(3-(1-(hydroxymethyl)cyclopropylsulfonyl)phenoxy)propan-2-ol]: the half-maximal inhibitory concentration (IC50) was found to be 41.8 nM.

Take `NC(=O)CS(=O)(=O)c1cccc(OC[C@@H](O)CN[C@H]2COC3(CCN(S(=O)(=O)c4ccc5ncccc5c4)CC3)C2)c1` [Compound 137, 2-(3-((S)-2-hydroxy-3-((R)-8-(quinolin-6-ylsulfonyl)-1-oxa-8-azaspiro[4.5]decan-3-ylamino)propoxy)phenylsulfonyl)acetamide]: the IC50 was found to be 350 nM.

As for `CCn1cc(-c2cccc(S(=O)(=O)N3CCC4(CC3)CC(NC[C@H](O)COc3cccc(S(C)(=O)=O)c3)CO4)c2)cn1` (stereo partly drawn) [Compound 36, (2S)-1-(8-(3-(1-ethyl-1H-pyrazol-4-yl)phenylsulfonyl)-1-oxa-8-azaspiro[4.5]decan-3-ylamino)-3-(3-(methylsulfonyl)phenoxy)propan-2-ol], the IC50 was determined as 21.5 nM.

In general, IC50 refers to the concentration that gives 50% inhibition.

The values above are taken from patent US10927123B2, “Modulators of the beta-3 adrenergic receptor useful for the treatment or prevention of disorders related thereto” (Arena Pharmaceuticals, Inc., priority 2016, dated 2021).
